In patent US20240417410A1, “TRICYCLIC COMPOUNDS FOR THE TREATMENT OF CANCER” (Hoffmann-La Roche Inc., priority 2023, published 2024):

Experiments:
[1] = target: KRAS G12C-BRAF complex (Homo sapiens (Human), UniProt P01116+P62937, G12C); experiment: KRAS-BRAF with CYPA (500 nM) interaction assay (TR-FRET, Example 136); type: biochemical; details: KRAS G12C-BRAF disruption
[2] = tested on: phosphorylation of ERK, KRAS G12D in AGS cells; experiment: pERK inhibition assay; type: cell-based; details: Homo sapiens, AGS, 4 h
How it was run: (§1)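 Phospho-ERK quantified by in-cell ELISA with TMB read-out at OD450 following 4 h compound exposure (final 0.5% DMSO). Cell lines were SW620 (KRAS G12V), AGS (G12D) and NCI-H358 (G12C), grown in RPMI-1640 with 10% FBS. A 4-parameter sigmoidal model gave the IC50.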

[3] = tested on: phosphorylation of ERK, KRAS G12V in SW620; experiment: pERK inhibition assay; type: cell-based; details: Homo sapiens, SW-620, 4 h, SW620 cells
How it was run: as §1

[4] = tested on: phosphorylation of ERK, KRAS G12C in NCI-H358 cells; experiment: pERK inhibition assay; type: cell-based; details: Homo sapiens, NCI-H358, 4 h
How it was run: as §1

[5] = tested on: NCI-H358 cells (KRAS G12C); experiment: Cell viability assay (Cell Counting Kit-8, 3-day); type: cell-based, human; details: Homo sapiens, NCI-H358, 72 h, NCI-H358, 72 hrs incubation
How it was run: (§2)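 After overnight attachment, cells received compounds (0.5% DMSO) for 72 hrs; viability was then quantified with CCK-8, reading OD450 minus OD650, and IC50 values were obtained from a 4-parameter concentration-response fit.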

[6] = tested on: SW620 cells (KRAS G12V); experiment: Cell viability assay (Cell Counting Kit-8, 3-day); type: cell-based, human; details: Homo sapiens, SW-620; SW620, 72 hrs incubation
How it was run: as §2

[7] = tested on: AGS cells (KRAS G12D); experiment: Cell viability assay (Cell Counting Kit-8, 3-day); type: cell-based, human; details: Homo sapiens, 72 h, 72 hrs incubation
How it was run: as §2

Chain of KRAS G12C-BRAF complex (P01116-2 other isoform, or with tags, fused parts or gaps G12C): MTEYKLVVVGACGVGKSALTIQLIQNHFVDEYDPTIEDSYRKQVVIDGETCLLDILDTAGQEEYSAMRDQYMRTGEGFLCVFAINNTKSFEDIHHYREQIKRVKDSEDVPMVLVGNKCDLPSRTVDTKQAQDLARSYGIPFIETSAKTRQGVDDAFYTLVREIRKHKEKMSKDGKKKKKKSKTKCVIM
Chain of KRAS G12C-BRAF complex (P62937 whole entry): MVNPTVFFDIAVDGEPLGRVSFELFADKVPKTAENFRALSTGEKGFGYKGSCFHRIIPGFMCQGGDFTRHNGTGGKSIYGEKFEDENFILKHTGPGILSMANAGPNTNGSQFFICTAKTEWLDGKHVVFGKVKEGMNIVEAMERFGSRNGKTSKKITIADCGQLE

Compound	IC50 [1]	IC50 [2]	IC50 [3]	IC50 [4]	IC50 [5]	IC50 [6]	IC50 [7]
CO[C@@H](C)c1ncc(N2CCN3CCOC[C@@H]3C2)cc1-c1c2c3cc(cc4c3n1CCC4)-c1csc(n1)C[C@H](NC(=O)[C@H]1C[C@@H]1c1cncnc1)C(=O)N1CCC[C@H](N1)C(=O)OCC(C)(C)C2 (atropisomer, axis not shown; (M)) [Example 105, (1S,2S)-N-[(7S,13S)-(20M)-20-[5-[(9αS)-3,4,6,7,9,9a-hexahydro-1H-pyrazino[2,1-c][1,4]oxazin-8-yl]-2-[(1S)-1-methoxyethyl]-3-pyridyl]-17,17-dimethyl-8,14-dioxo-15-oxa-4-thia-9,21,30,31-tetrazahexacyclo[23.3.1.1^2,5.1^9,13.0^19,27.0^21,26]hentriaconta-1 (28),2,5 (31),19,25 (29),26-hexaen-7-yl]-2-pyrimidin-5-yl-cyclopropanecarboxamide]	13.3 nM	2.2 nM	0.4 nM	1.5 nM	1.5 nM	0.6 nM	6.8 nM
CO[C@@H](C)c1ncc(N2CCN(C3CC3)CC2)cc1-c1c2c3cc(cc4c3n1CCO4)-c1csc(n1)C[C@H](NC(=O)[C@H]1[C@H](C)[C@@H]1C)C(=O)N1CCC[C@H](N1)C(=O)OCC(C)(C)C2 (atropisomer, axis not shown; (M)) [Example 106, (1r,2R,3S)-N-[(7S,13S)-(20M)-20-[5-(4-cyclopropylpiperazin-1-yl)-2-[(1S)-1-methoxyethyl]-3-pyridyl]-17,17-dimethyl-8,14-dioxo-15,24-dioxa-4-thia-9,21,30,31-tetrazahexacyclo[23.3.1.1^2,5.1^9,13.0^19,27.0^21,26]hentriaconta-1 (28),2,5 (31),19,25 (29),26-hexaen-7-yl]-2,3-dimethyl-cyclopropanecarboxamide]	10.8 nM	3.1 nM	0.4 nM	1.1 nM	4.4 nM	0.4 nM	8.7 nM
CO[C@@H](C)c1ncc(N2CCOCC2)cc1-c1c2c3cc(cc4c3n1C[C@@H](O)C4)-c1csc(n1)C[C@H](NC(=O)[C@H]1[C@H](C)[C@@H]1C)C(=O)N1CCC[C@H](N1)C(=O)OCC(C)(C)C2 (atropisomer, axis not shown; (M)) [Example 107, (1r,2R,3S)-N-[(7S,13S,23S)-23-hydroxy-(20M)-20-[2-[(1S)-1-methoxyethyl]-5-morpholino-3-pyridyl]-17,17-dimethyl-8,14-dioxo-15-oxa-4-thia-9,21,30,31-tetrazahexacyclo[23.3.1.1^2,5.1^9,13.0^19,27.0^21,26]hentriaconta-1 (28),2,5 (31),19,25 (29),26-hexaen-7-yl]-2,3-dimethyl-cyclopropanecarboxamide]	47.6 nM	7.4 nM	1.5 nM	2.7 nM	8.4 nM	1.2 nM	5.4 nM
CO[C@@H](C)c1ncc(N2CCNCC2)cc1-c1c2c3cc(cc4c3n1CCC4)-c1csc(n1)C[C@H](NC(=O)[C@H]1[C@H](C)[C@@H]1C)C(=O)N1CCC[C@H](N1)C(=O)OCC(C)(C)C2 (atropisomer, axis not shown; (M)) [Example 108, (1r,2R,3S)-N-[(7S,13S)-(20M)-20-[2-[(1S)-1-methoxyethyl]-5-piperazin-1-yl-3-pyridyl]-17,17-dimethyl-8,14-dioxo-15-oxa-4-thia-9,21,30,31-tetrazahexacyclo[23.3.1.1^2,5.1^9,13.0^19,27.0^21,26]hentriaconta-1 (28),2,5 (31), 19,25 (29),26-hexaen-7-yl]-2,3-dimethyl-cyclopropanecarboxamide]	4.6 nM	3.9 nM	0.5 nM	1.8 nM	2.2 nM	0.5 nM	1.8 nM
CO[C@@H](C)c1ncc(N2CCN(CCF)CC2)cc1-c1c2c3cc(cc4c3n1CCC4)-c1csc(n1)C[C@H](NC(=O)[C@H]1[C@H](C)[C@@H]1C)C(=O)N1CCC[C@H](N1)C(=O)OCC(C)(C)C2 (atropisomer, axis not shown; (M)) [Example 110, (1r,2R,3S)-N-[(7S,13S)-(20M)-20-[5-[4-(2-fluoroethyl)piperazin-1-yl]-2-[(1S)-1-methoxyethyl]-3-pyridyl]-17,17-dimethyl-8,14-dioxo-15-oxa-4-thia-9,21,30,31-tetrazahexacyclo[23.3.1.1^2,5.1^9,13.0^19,27.0^21,26]hentriaconta-1 (28),2,5 (31), 19,25 (29),26-hexaen-7-yl]-2,3-dimethyl-cyclopropanecarboxamide]	4.9 nM	2.6 nM	0.3 nM	0.7 nM	1.8 nM	0.4 nM	2.6 nM
CO[C@@H](C)c1ncc(N2CCN(CCCO)CC2)cc1-c1c2c3cc(cc4c3n1CCC4)-c1csc(n1)C[C@H](NC(=O)[C@H]1[C@H](C)[C@@H]1C)C(=O)N1CCC[C@H](N1)C(=O)OCC(C)(C)C2 (atropisomer, axis not shown; (M)) [Example 111, (1r,2R,3S)-N-[(7S,13S)-(20M)-20-[5-[4-(3-hydroxypropyl)piperazin-1-yl]-2-[(1S)-1-methoxyethyl]-3-pyridyl]-17,17-dimethyl-8,14-dioxo-15-oxa-4-thia-9,21,30,31-tetrazahexacyclo[23.3.1.1^2,5.1^9,13.0^19,27.0^21,26]hentriaconta-1 (28),2,5 (31), 19,25 (29),26-hexaen-7-yl]-2,3-dimethyl-cyclopropanecarboxamide]	4.7 nM	2 nM	0.4 nM	0.6 nM	1 nM	0.2 nM	0.8 nM
CO[C@@H](C)c1ncc(N2CCN(C)CC2)cc1-c1c2c3cc(cc4c3n1CCC4)-c1csc(n1)C[C@H](NC(=O)[C@@H]1C[C@H]1c1cncnc1C)C(=O)N1CCC[C@H](N1)C(=O)OCC(C)(C)C2 (atropisomer, axis not shown; (M)) [Example 112, (1R,2R)-N-[(7S,13S)-(20M)-20-[2-[(1S)-1-methoxyethyl]-5-(4-methylpiperazin-1-yl)-3-pyridyl]-17,17-dimethyl-8,14-dioxo-15-oxa-4-thia-9,21,30,31-tetrazahexacyclo[23.3.1.1^2,5.1^9,13.0^19,27.0^21,26]hentriaconta-1 (28),2,5 (31), 19,25 (29),26-hexaen-7-yl]-2-(4-methylpyrimidin-5-yl)cyclopropanecarboxamide]	10.4 nM	3.4 nM	0.5 nM	0.7 nM	2.2 nM	0.8 nM	3.4 nM
CCN1CCN(c2cnc([C@H](C)OC)c(-c3c4c5cc(cc6c5n3CCC6)-c3csc(n3)C[C@H](NC(=O)[C@H]3[C@H](C)[C@@H]3C)C(=O)N3CCC[C@H](N3)C(=O)OCC(C)(C)C4)c2)CC1 (atropisomer, axis not shown; (M)) [Example 113, (1r,2R,3S)-N-[(7S,13S)-(20M)-20-[5-(4-ethylpiperazin-1-yl)-2-[(1S)-1-methoxyethyl]-3-pyridyl]-17,17-dimethyl-8,14-dioxo-15-oxa-4-thia-9,21,30,31-tetrazahexacyclo[23.3.1.1^2,5.1^9,13.0^19,27.0^21,26]hentriaconta-1 (28),2,5 (31), 19,25 (29),26-hexaen-7-yl]-2,3-dimethyl-cyclopropanecarboxamide]	4.3 nM	2.2 nM	0.4 nM	0.6 nM	2.1 nM	0.3 nM	1.5 nM
CO[C@@H](C)c1ncc(N2CCN(C)CC2)cc1-c1c2c3cc(cc4c3n1CCC4)-c1csc(n1)C[C@H](NC(=O)[C@@H]1C[C@H]1c1cscn1)C(=O)N1CCC[C@H](N1)C(=O)OCC(C)(C)C2 (atropisomer, axis not shown; (M)) [Example 114, (1R,2R)-N-[(7S,13S)-(20M)-20-[2-[(1S)-1-methoxyethyl]-5-(4-methylpiperazin-1-yl)-3-pyridyl]-17,17-dimethyl-8,14-dioxo-15-oxa-4-thia-9,21,30,31-tetrazahexacyclo[23.3.1.1^2,5.1^9,13.0^19,27.0^21,26]hentriaconta-1 (28),2,5 (31), 19,25 (29),26-hexaen-7-yl]-2-thiazol-4-yl-cyclopropanecarboxamide]	8.9 nM	7.5 nM	1 nM	1.2 nM	4.5 nM	1.3 nM	5.1 nM
